How the values were obtained:
[1] = tested on: eukaryotic cell lines; settings: cited from earlier work
[2] = tested on: human primary fibroblasts; assay: In vitro analysis of ATP levels in human epidermal fibroblasts (ViaLight Plus ATP assay); type: cell-based
Description: The biological endpoint in the example is the energy level of each individual cell. This is determined quantitatively by the level of adenosine triphosphate (ATP), which is the common energy storage molecule in human cells.
Primary epidermal fibroblast were isolated from human foreskin and cultured in DMEM with 10% fetal-bovine serum-(FBS), penicillin, and streptomycin. The cells were maintained in a growth chamber at 37° C. and 5% CO2 and used for these kinds of experiments between passage 8 and 12. Fibroblasts were transferred to 96 well plates and allowed to attach for 5 h in standard medium before a serum starvation with 1% FBS over 4 days was initiated.
Epidermal fibroblasts were treated between 4 h and 48 h with vitamin K1 at concentrations up to 44 μM in DMEM. After variing incubation time, the ATP-assay was performed with the High Sensitivy Cell Proliferation Assay (Via light Plus, Cambrex). The procedure was done according to the manufacturers recommendations. Briefly, the culture plate was removed from the incubator and was allowed to cool down to room temperature for at least 5 minutes, then 50 μl of Cell Lysis Reagent were added to each well and incubated 10 minutes, 100 μl of AMR PLUS were added to each well and incubated for 2 minutes at room temperature. The plate was analysed in a luminometer.

[3] = 45 mg/day, women with osteoporosis; cited from earlier work

In the case of `COC1=C(OC)C(=O)C(C/C=C(\C)CC/C=C(\C)CC/C=C(\C)CC/C=C(\C)CC/C=C(\C)CC/C=C(\C)CC/C=C(\C)CC/C=C(\C)CC/C=C(\C)CCC=C(C)C)=C(C)C1=O` [coenzyme Q10], the “stimulation of cell growth via transplasma membrane electron transport” value [1] is listed as “able to stimulate these cells”.
For `CC1=C(C/C=C(\C)CCC[C@H](C)CCC[C@H](C)CCCC(C)C)C(=O)c2ccccc2C1=O` [vitamin K1, phytomenadione], the “incubation time at which maximum stimulation of ATP levels is reached” value ([2]; 2 μM vitamin K1, serum-starved fibroblasts, FIG. 1) is listed as “about 16 h”, the “concentration with the most promising induction of ATP levels” value ([2]; dose-response at two time points, no correlation to the time point, FIG. 2) is listed as 2 µM and the “stimulation of cell growth via transplasma membrane electron transport” value [1] is listed as “no efficacy”.
In the case of menaquinone [vitamin K2], the “effect on loss of bone mineral density” value [3] is given as “slow down but not prevent a progressive loss of bone mineral density” and the “effect on risk of bone fractures” value [3] is given as “reduce the risk of bone fractures”.
